Data as given in patent publication EP4729519A1, “CRYSTAL FORM OF ENPP1 INHIBITOR” (CSPC Zhongqi Pharmaceutical Technology (Shijiazhuang) Co., …, priority 2023, dated 2024).
Where two headings read alike, the source gives them in different places.

What was measured:
[1] = test system: SD rat model of myocardial ischemia; test: Rat myocardial ischemia model (LAD ligation), echocardiography and Masson staining; assay type: in vivo; conditions: rats; for reduction of the degree of fibrosis compared with the vehicle control group: Masson staining
Method: This study aimed to evaluate the pharmacodynamic effect of the compound of formula (I) in a SD rat model of myocardial ischemia.
After the animals had acclimated to the facility for one week, the model was established by ligation of the left anterior descending coronary artery (LAD). After model establishment, the rats were administered penicillin (80,000 units/rat, i.m.) for 3 days, and disinfected to prevent infection.
One day after model establishment, the modeled animals were randomly divided into 4 groups according to the baseline body weight and echocardiographic imaging indicators, with 4 animals in each sham group (Sham) and 6 animals in each myocardial infarction model group (MI), and drug administration was then initiated. The control group was given the blank vehicle: 5% DMSO + 45% PEG400 + 50% H2O (1% CMC-Na). The experimental groups were administered by oral gavage at doses of 30 mg/kg and 75 mg/kg, respectively, twice daily for 28 consecutive days. The body weights of the animals were monitored daily after administration, and echocardiographic imaging indicators were measured on days 7 and 28. The primary indicators of echocardiographic evaluation were left ventricular fractional shortening (FS) and left ventricular ejection fraction (LVEF). After the echocardiographic measurement on day 28, heart tissues were collected in a tissue fixative for pathological analysis by Masson's trichrome staining.

[2] = Pharmacokinetic test in mice, plasma concentration by LC-MS/MS; assay type: in vivo, CD-1 male mice; conditions: male, CD-1, mouse; for AUC(0-t): read-out: AUC0-24h
[3] = test system: pancreatic cancer Pan02 cells; test: Mouse subcutaneous homograft tumour model of pancreatic cancer Pan02; assay type: in vivo, C57BL/6 mice; conditions: 20 mg/kg oral gavage twice daily
Method: • 1. Experimental Objective: The in vivo efficacy of the test drug in the mouse subcutaneous homograft tumour model of pancreatic cancer Pan02 cells was evaluated. • 2. Experimental Methods • 2.1 Cell Culture Mouse pancreatic cancer Pan02 cells were cultured in monolayer in vitro in DMEM medium supplemented with 10% fetal bovine serum, 0.01 mg/mL sinsulin, 1% penicillin/streptomycin/amphotericin B in an incubator at 37 °C with 5% CO2. When the cell saturation was 80%-90% and the number reached the requirement, the cells were harvested, counted, and inoculated. • 2.2 Animals C57BL/6 mice, female, 6-8 weeks old, weighing 18-22 g. The mice were provided by Shanghai Xipu-Bikai Laboratory Animal Co., Ltd., or other suppliers. • 2.3 Tumour Inoculation and Animal Grouping and administration 0.1 Milliliter of Pan02 cells (5×10^6 cells) were inoculated subcutaneously into the right hind back of each mouse, and animal grouping and administration began when the average tumour volume reached about 100-200 mm^3. Animals were weighed and tumour volumes were measured before administration. Mice were randomly divided into groups based on the tumour volume, with 8 mice in each group. […] Tumor volume was calculated using the formula: V=0.5a×b^2, where a and b represented the long and short diameters of the tumour, respectively. […]

[4] = target: T1, hENPP1 enzyme (Homo sapiens, UniProt P22413); test: ENPP1 enzymatic inhibition test in vitro (TMP-pNP hydrolysis, OD405); assay type: biochemical; conditions: TMP-pNP substrate, pH 9.5, 37 °C, 0.5 h
T1 sequence (P22413 1-925): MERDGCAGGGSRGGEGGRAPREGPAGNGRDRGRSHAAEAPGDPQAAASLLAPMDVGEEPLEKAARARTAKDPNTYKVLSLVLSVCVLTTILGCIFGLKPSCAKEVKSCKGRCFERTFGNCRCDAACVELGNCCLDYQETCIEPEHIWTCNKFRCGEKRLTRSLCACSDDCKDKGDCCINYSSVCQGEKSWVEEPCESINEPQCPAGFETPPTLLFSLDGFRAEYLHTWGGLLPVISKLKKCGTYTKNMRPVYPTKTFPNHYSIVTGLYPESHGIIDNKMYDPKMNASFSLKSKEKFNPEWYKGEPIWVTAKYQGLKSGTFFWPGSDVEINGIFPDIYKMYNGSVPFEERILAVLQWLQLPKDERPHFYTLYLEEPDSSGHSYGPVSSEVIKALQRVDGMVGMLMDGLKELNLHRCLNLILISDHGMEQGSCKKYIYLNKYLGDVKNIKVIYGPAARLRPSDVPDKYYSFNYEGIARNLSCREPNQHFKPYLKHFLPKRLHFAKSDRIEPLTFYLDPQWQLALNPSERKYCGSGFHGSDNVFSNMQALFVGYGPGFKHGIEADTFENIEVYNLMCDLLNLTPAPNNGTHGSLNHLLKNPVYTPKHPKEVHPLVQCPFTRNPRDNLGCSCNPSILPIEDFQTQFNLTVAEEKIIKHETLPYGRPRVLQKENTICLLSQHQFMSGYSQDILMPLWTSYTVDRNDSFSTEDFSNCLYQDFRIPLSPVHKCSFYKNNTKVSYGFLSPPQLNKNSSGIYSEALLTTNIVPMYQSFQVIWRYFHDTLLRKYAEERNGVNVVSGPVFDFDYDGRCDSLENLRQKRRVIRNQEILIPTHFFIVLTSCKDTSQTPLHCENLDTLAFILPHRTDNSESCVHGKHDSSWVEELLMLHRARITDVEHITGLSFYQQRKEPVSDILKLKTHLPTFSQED
Description: ENPP1 is a transmembrane glycoprotein capable of hydrolyzing nucleotides and derivatives with nucleotide-5'-monophosphate structures. ENPP1 is capable of hydrolyzing artificially synthesized 5'-p-nitrophenyl monophosphate (TMP-pNP) into nucleotide 5'-monophosphate and p-nitrophenol, while p-nitrophenol is a chromogenic product. The production amount of p-nitrophenol product can be directly measured by its absorbance at 405 nm, which is directly proportional to the enzyme activity.
100X serial gradient dilutions of compound were prepared with DMSO, starting from a stock concentration of 1 mM, and using a 4-fold serial gradient dilution to make 10 concentration points. 300 Nanoliter of compounds at gradient concentrations were transferred to a 384-well assay plate (final concentration: starting at 10 µM, 4-fold serial gradient dilution, 10 concentration points) by using Echo. First, 15 µL of 0.2 ng/uL hENPP1 enzyme (2× final concentration) prepared in an assay buffer (250 mM NaCl, 50 mM Tris, pH = 9.5) was added to each well. […] After incubation at 37 °C for 0.5 h, the OD405 nm value was read by the microplate reader. The percentage of inhibition rate was calculated using the formula: %Inhibition Rate=(ODhigh signal control - ODsample well) / (ODhigh signal control - ODlow signal control)*100. The IC50 value was calculated using four-parameter fitting. […]

[5] = test system: C57 BL/6 mouse model of myocardial ischemia; test: Mouse myocardial ischemia model (LAD ligation), echocardiography and Masson staining; assay type: in vivo; conditions: mice; for reduction of the degree of fibrosis compared with the vehicle control group: Masson staining; for increase of left ventricular ejection fraction (LVEF) compared with the vehicle control group / increase of left ventricular fractional shortening (FS) compared with the vehicle control group: day 1; for increase of left ventricular ejection fraction (LVEF) / increase of left ventricular fractional shortening (FS): day 7
Description: This study aimed to evaluate the pharmacodynamic effect of the compound of formula (I) in a C57 BL/6 mouse model of myocardial ischemia.
After the animals had acclimated to the facility for one week, they were divided into four groups based on their body weights on the day before surgery, with 6 animals in the sham group (Sham) and 8 animals in the model group (MI). On the next day, the animals underwent myocardial ischemia surgery for modeling (the mice in the Sham group only underwent thoracotomy and threading without ligation). The model was established by ligation of the left anterior descending coronary artery (LAD). After model establishment, the mice were administered penicillin (20,000 units/mouse, i.m.) for 3 days, and disinfected to prevent infection.
Each group of animals was administered the corresponding compounds one hour before surgery. The control group (Vehicle) was administered the vehicle: 5% DMSO+45% PEG400+50% H2O (1% CMC-Na). The experimental groups were administered by oral gavage at doses of 4 mg/kg and 20 mg/kg, respectively, twice daily for 28 consecutive days. The body weights of the animals were monitored daily after administration, and echocardiographic imaging indicators were measured on days 1, 7 and 28. The primary indicators of echocardiographic evaluation were left ventricular fractional shortening (FS) and left ventricular ejection fraction (LVEF). After the echocardiographic measurement on day 28, heart tissues were collected in a tissue fixative for pathological analysis by Masson's trichrome staining.

[6] = 30mpk oral gavage twice daily, 7th day
[7] = 30mpk oral gavage twice daily, day 28
[8] = 75mpk oral gavage twice daily, 7th day
[9] = 75mpk oral gavage twice daily, day 28

COc1ccc2c3c(cnc2n1)COC(=O)N3Cc1c(F)cc(S(N)(=O)=O)cc1F [Compound of Formula (I), 3,5-difluoro-4-((8-methoxy-2-oxo-2H-[1,3]oxazino[5,4-c][1,8]naphthyridin-1(4H)-yl)methyl)benzenesulfonamide]
reduction of the degree of fibrosis compared with the vehicle control group ([1]; 30 mg/kg twice daily, 28 days): 5.2%
reduction of the degree of fibrosis compared with the vehicle control group ([1]; 75 mg/kg twice daily, 28 days): 6.5%
effect on body weight ([1]; 30 and 75 mg/kg twice daily, 28 days): no significant effect on body weight
increase of LVEF [1, 6]: 11.43%
increase of left ventricular fractional shortening (FS) [1, 6]: 9.73%
increase of LVEF [1, 7]: 18.75%
increase of left ventricular fractional shortening (FS) [1, 7]: 13.01%
increase of LVEF [1, 8]: 18.85%
increase of left ventricular fractional shortening (FS) [1, 8]: 12.62%
increase of LVEF [1, 9]: 23.8%
increase of left ventricular fractional shortening (FS) [1, 9]: 15.88%
clearance ([2]; 2 mg/kg, IV, 2mpk): 3.2 mL/min/kg
half-life ([2]; 2 mg/kg, IV, 2mpk): 5.35 h
AUC(0-t) ([2]; 2 mg/kg, IV, 2mpk): 10000 ng·h/mL
Vd ([2]; 2 mg/kg, IV, 2mpk, read-out: Vss): 1.08 L/kg
Cmax ([2]; 10 mg/kg, PO, 10mpk): 8080 ng/mL
Tmax ([2]; 10 mg/kg, PO, 10mpk): 2 h
half-life ([2]; 10 mg/kg, PO, 10mpk): 3.5 h
AUC(0-t) ([2]; 10 mg/kg, PO, 10mpk): 47800 ng·h/mL
effect on the body weight of the mice ([3]; 16 days): no inhibitory effect on the body weight
TGI ([3]; after administration for 16 days, p<0.05 vs control group): 43.4%
IC50 [4]: 0.05 nM
reduction of the degree of fibrosis compared with the vehicle control group ([5]; 4 mg/kg twice daily, 28 days): 8.8%
reduction of the degree of fibrosis compared with the vehicle control group ([5]; 20 mg/kg twice daily, 28 days): 9.6%
effect on body weight ([5]; 4 and 20 mg/kg twice daily, 28 days): without any significant effect on body weight
increase of left ventricular ejection fraction (LVEF) compared with the vehicle control group ([5]; 4 mpk oral gavage twice daily): 15%
increase of left ventricular fractional shortening (FS) compared with the vehicle control group ([5]; 4 mpk oral gavage twice daily): 7%
increase of left ventricular ejection fraction (LVEF) ([5]; 4 mpk oral gavage twice daily): 23.4%
increase of left ventricular fractional shortening (FS) ([5]; 4 mpk oral gavage twice daily): 12.2%
increase of left ventricular ejection fraction (LVEF) compared with the vehicle control group ([5]; 20 mpk oral gavage twice daily): 10%
increase of left ventricular fractional shortening (FS) compared with the vehicle control group ([5]; 20 mpk oral gavage twice daily): 5%
increase of left ventricular ejection fraction (LVEF) ([5]; 20 mpk oral gavage twice daily): 23.3%
increase of left ventricular fractional shortening (FS) ([5]; 20 mpk oral gavage twice daily): 12.3%
LVEF and FS in the left ventricle ([5]; day 28, vehicle control group further deteriorated): further maintained the LVEF and FS
